The values below come from ChEMBL document CHEMBL4219114, “Aralkyl selenoglycosides and related selenosugars in acetylated form activate protein phosphatase-1 and -2A” (Bioorg Med Chem, 2018).

Calls of active or inactive are those of the source. No cut-off for these calls is given here.

As a reminder, the EC50 is the concentration at which the effect is half-maximal.

The test system of data set [1] is HeLa. The data set is described as follows: Cytotoxicity against human HeLa cells assessed as reduction in cell viability at >200 uM after 24 hrs by Alamar blue assay. The class given is functional, cell-based.
Data set [2] deals with Serine/threonine-protein phosphatase PP1-beta catalytic subunit (Homo sapiens) (UniProt P62140). The data set can be described thus: Binding affinity to full length recombinant human N-terminal His6-tagged PP1cdelta expressed in Escherichia coli M15 assessed as inhibition of protein interaction with GST-tagged MYPT1 at 10 to 50 uM by surface plasmon resonance method. (SPR reads the build-up and loss of mass on a sensor chip optically.)
Chain of Serine/threonine-protein phosphatase PP1-beta catalytic subunit (Homo sapiens) (P62140 whole entry): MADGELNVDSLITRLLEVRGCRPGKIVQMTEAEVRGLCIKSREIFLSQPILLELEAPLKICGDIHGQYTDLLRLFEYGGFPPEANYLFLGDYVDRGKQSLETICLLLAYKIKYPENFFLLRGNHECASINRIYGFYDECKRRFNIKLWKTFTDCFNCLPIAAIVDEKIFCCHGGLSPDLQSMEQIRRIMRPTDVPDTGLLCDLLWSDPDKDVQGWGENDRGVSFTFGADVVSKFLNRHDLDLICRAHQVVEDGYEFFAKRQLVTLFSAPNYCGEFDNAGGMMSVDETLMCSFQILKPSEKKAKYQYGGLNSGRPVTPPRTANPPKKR

The species named for data set [3] is Oryctolagus cuniculus. The data set is described as follows: Activation of rabbit skeletal muscle PP1 catalytic subunit at 395 uM using [32P]MLC20 as substrate pretreated for 10 mins followed by substrate addition measured after 10 mins in presence of 10 to 25 uM MYPT1 (23 to 38 residues) peptide by scintillation counting method.
Data set [4] is described as follows: Activation of rabbit skeletal muscle PP1 catalytic subunit using [32P]MLC20 as substrate pretreated for 10 mins followed by substrate addition measured after 10 mins by scintillation counting method relative to control. On the set-up: species or system Oryctolagus cuniculus.
Data set [5] can be described thus: Activation of rabbit skeletal muscle PP2A catalytic subunit using [32P]MLC20 as substrate pretreated for 10 mins followed by substrate addition measured after 10 mins by scintillation counting method relative to control. Details: species or system Oryctolagus cuniculus.
The species named for data set [6] is Oryctolagus cuniculus. The data set is described as follows: Activation of rabbit skeletal muscle PP1 catalytic subunit at 19 to 395 uM using [32P]MLC20 as substrate pretreated for 10 mins followed by substrate addition measured after 10 mins by scintillation counting method relative to control.
For data set [7], the species on record is Oryctolagus cuniculus. The data set can be described thus: Activation of rabbit skeletal muscle PP2A catalytic subunit at 395 uM using [32P]MLC20 as substrate pretreated for 10 mins followed by substrate addition measured after 10 mins in presence of 10 uM MYPT1 (23 to 38 residues) peptide by scintillation counting method relative to control.
The species named for data set [8] is Oryctolagus cuniculus. The data set can be described thus: Activation of rabbit skeletal muscle PP2A catalytic subunit at 19 to 395 uM using [32P]MLC20 as substrate pretreated for 10 mins followed by substrate addition measured after 10 mins by scintillation counting method relative to control.
Data set [9] deals with HeLa. The data set is described as follows: Activation of PP1 catalytic subunit/PP2A catalytic subunit in human HeLa cells at >100 uM using [32P]MLC20 as substrate pretreated for 1 hr followed by substrate addition measured after 30 secs by scintillation counting method. The class given is cell-based.
Data set [10] can be described thus: Inhibition of rabbit skeletal muscle PP2A catalytic subunit at 19 to 395 uM using [32P]MLC20 as substrate pretreated for 10 mins followed by substrate addition measured after 10 mins by scintillation counting method relative to control. On the set-up: species or system Oryctolagus cuniculus.
The nature of data set [11]: Inhibition of rabbit skeletal muscle PP1 catalytic subunit at 19 to 395 uM using [32P]MLC20 as substrate pretreated for 10 mins followed by substrate addition measured after 10 mins by scintillation counting method. On the set-up: species or system Oryctolagus cuniculus.
The test system of data set [12] is HeLa. The data set is described as follows: Activation of PP1 catalytic subunit/PP2A catalytic subunit in human HeLa cells using [32P]MLC20 as substrate pretreated for 1 hr followed by substrate addition measured after 30 secs by scintillation counting method. It counts as cell-based.
Data set [13] has as its system HeLa. The data set can be described thus: Activation of PP1 catalytic subunit/PP2A catalytic subunit in human HeLa cells at 395 uM using [32P]MLC20 as substrate pretreated for 1 hr followed by substrate addition measured after 30 secs by scintillation counting method. It counts as cell-based.

With `CC(=O)OC[C@H]1O[C@@H]([Se]Cc2ccccc2C(F)(F)F)[C@H](OC(C)=O)[C@@H](OC(C)=O)[C@@H]1OC(C)=O`, the result (with HeLa [1]; in data set [2]; in the data set filed under Oryctolagus cuniculus [6]; in the data set listed under Oryctolagus cuniculus [7]; in the data set filed under Oryctolagus cuniculus [8]; in the data set on HeLa [9]) was Active. Further, in the data set listed under Oryctolagus cuniculus [3], the outcome was inactive. Further, the results for the EC50 in data set [4] and in data set [5] were 233 µM and 83.5 µM, respectively.
For the compound `CC(=O)OC[C@H]1O[C@@H]([Se]CCc2ccccc2)[C@H](OC(C)=O)[C@@H](OC(C)=O)[C@@H]1OC(C)=O`, the values for the half-maximal effective concentration (EC50) in data set [4] and in [5] were 171 µM and 104 µM, respectively. The fold change (FC) in the data set listed under Oryctolagus cuniculus [6] and in the data set filed under Oryctolagus cuniculus [8] was 4 throughout.
As to `CC(=O)N[C@@H]1[C@@H](OC(C)=O)[C@H](OC(C)=O)[C@@H](COC(C)=O)O[C@H]1[Se]C(=O)c1ccc(C)cc1`, the “inhibition (INH)” value in [10] and in data set [11] was “Active” each time. For the same compound, the result in the data set listed under Oryctolagus cuniculus [6] and in the data set filed under Oryctolagus cuniculus [8] was Active.
In the case of `OC[C@H]1O[C@@H]([Se]Cc2ccccc2C(F)(F)F)[C@H](O)[C@@H](O)[C@@H]1O`, the result in the data set on HeLa [1] was Active. Moreover, the result in the data set with HeLa [12], in the data set listed under Oryctolagus cuniculus [6] and in the data set listed under Oryctolagus cuniculus [8] was inactive.
On to `CC(=O)OC[C@H]1O[C@@H]([Se]c2ccccc2)[C@H](OC(C)=O)[C@@H](OC(C)=O)[C@@H]1OC(C)=O`, for which the EC50 in [4] was 291 µM; in [5], 84.8 µM. The fold change (FC) in the data set filed under Oryctolagus cuniculus [6] and in the data set filed under Oryctolagus cuniculus [8] was 4 each time.
On to `CC(=O)OC[C@H]1O[C@@H]([Se]C(=O)c2ccc(Cl)cc2)[C@H](OC(C)=O)[C@@H](OC(C)=O)[C@@H]1OC(C)=O`, for which the “inhibition (INH)” value in data set [10] and in [11] was “Active” throughout. The result in the data set filed under Oryctolagus cuniculus [6] and in the data set listed under Oryctolagus cuniculus [8] was Active.
For the compound `CC(=O)N[C@@H]1[C@@H](OC(C)=O)[C@H](OC(C)=O)[C@@H](COC(C)=O)O[C@H]1[Se]c1ccc([N+](=O)[O-])cn1`, the “inhibition (INH)” value in data set [10] and in [11] was “Active” in each case. Further, the result in the data set filed under Oryctolagus cuniculus [6] and in the data set filed under Oryctolagus cuniculus [8] was inactive.
For `CC(=O)OC[C@H]1O[C@@H]([Se]Cc2ccc([N+](=O)[O-])cc2)[C@H](OC(C)=O)[C@@H](OC(C)=O)[C@@H]1OC(C)=O`, the “inhibition (INH)” value in data set [11] is on record as “Active”. In addition, the outcome in the data set listed under Oryctolagus cuniculus [6] and in the data set filed under Oryctolagus cuniculus [8] was inactive.
Consider `CC(=O)OC[C@H]1O[C@@H]([Se]C(=O)c2ccccc2)[C@H](OC(C)=O)[C@@H](OC(C)=O)[C@@H]1OC(C)=O`, for which the “inhibition (INH)” value in data set [10] and in [11] was “Active” throughout. Further, the fold change (FC) in the data set filed under Oryctolagus cuniculus [6] worked out at 2. In addition, the result in the data set filed under Oryctolagus cuniculus [8] was inactive.
Take `CC(=O)OC[C@H]1O[C@@H]([Se]c2ccc([N+](=O)[O-])cn2)[C@H](OC(C)=O)[C@@H](OC(C)=O)[C@@H]1OC(C)=O`: the “inhibition (INH)” value in [10] and in data set [11] was “Active” throughout. The outcome in the data set listed under Oryctolagus cuniculus [6] and in the data set listed under Oryctolagus cuniculus [8] was inactive.
With `OC[C@H]1O[C@@H]([Se]Cc2ccccc2)[C@H](O)[C@@H](O)[C@@H]1O`, in the data set on HeLa [1], the outcome was Active. In addition, the result with HeLa [12], in the data set filed under Oryctolagus cuniculus [6] and in the data set filed under Oryctolagus cuniculus [8] was inactive.
Regarding `CC(=O)OC[C@H]1O[C@@H]([Se]Cc2ccccc2)[C@H](OC(C)=O)[C@@H](OC(C)=O)[C@@H]1OC(C)=O`, the result with HeLa [1], in the data set filed under Oryctolagus cuniculus [6] and in the data set listed under Oryctolagus cuniculus [8] was Active.
Regarding `CC(=O)OC[C@H]1O[C@@H]([Se]C(=O)c2ccc(C)cc2)[C@H](OC(C)=O)[C@@H](OC(C)=O)[C@@H]1OC(C)=O`, the “inhibition (INH)” value in [10] and in [11] was “Active” throughout. Also, the outcome in the data set listed under Oryctolagus cuniculus [6] and in the data set listed under Oryctolagus cuniculus [8] was Active.
In the case of `CC(=O)OC[C@H]1O[C@@H]([Se]Cc2ccc(Br)cc2)[C@H](OC(C)=O)[C@@H](OC(C)=O)[C@@H]1OC(C)=O`, the outcome (in data set [2]; in the data set with HeLa [13]; in the data set filed under Oryctolagus cuniculus [6]; in the data set filed under Oryctolagus cuniculus [7]; in the data set filed under Oryctolagus cuniculus [8]) was Active. Moreover, the outcome in the data set listed under Oryctolagus cuniculus [3] was inactive. Besides, the figures for the EC50 in data set [4] and in [5] were 108 µM and 119 µM, respectively.
In the case of `CC(=O)OC[C@H]1O[C@@H]([Se]c2ccc([N+](=O)[O-])cc2[N+](=O)[O-])[C@H](OC(C)=O)[C@@H](OC(C)=O)[C@@H]1OC(C)=O`, the “inhibition (INH)” value in data set [10] and in data set [11] was “Active” in each case. Besides, the result in the data set filed under Oryctolagus cuniculus [6] and in the data set filed under Oryctolagus cuniculus [8] was inactive.
Regarding `COc1ccc(C[Se][C@@H]2O[C@H](COC(C)=O)[C@@H](OC(C)=O)[C@H](OC(C)=O)[C@H]2OC(C)=O)cc1`, the 50% effective concentration (EC50) in data set [4] turned out to be 222 µM; in data set [5], 119 µM. The result in the data set listed under Oryctolagus cuniculus [6] and in the data set filed under Oryctolagus cuniculus [8] was Active.
